Values quoted from earlier work in PubChem BioAssay AID1259409 (Chemical Carcinogenesis Research Information System (CCRIS), 2018).

System: rodent chemically induced tumor inhibition, incidence and multiplicity
Test: CCRIS tumor inhibitor studies
Settings: Carcinogen: 7,12-DIMETHYLBENZ[A]ANTHRACENE, 57-97-6, Dose [Inhibitor]: 0, Route [Inhibitor]: ORAL, Species: FISH, FEMALE, Promoter: NONE USED

O=c1oc2c(O)c(O)cc3c(=O)oc4c(O)c(O)cc1c4c23
tumour outcome (control, treated, inhibition, significance) (1000 PPM IN DIET FOR 17 WK BEGINNING POST CARCINOGEN TREATMENT (STUDY DURATION: 42 WK), Strain/Sex: RAINBOW TROUT/ MALE, Target Tissue: Type of Lesion: SWIM BLADDER: TUMOR, Dose [Carcinogen]: 5.5 PPM IN WATER FOR 1 HR): 15%, 6%, 60%, p<0.05 | tumour outcome (control, treated, inhibition, significance) (1000 PPM IN DIET FOR 17 WK BEGINNING POST CARCINOGEN TREATMENT (STUDY DURATION: 42 WK), Strain/Sex: RAINBOW TROUT/MALE, Target Tissue: Type of Lesion: LIVER: TUMOR, Dose [Carcinogen]: 5.5 PPM IN WATER FOR 1 HR): 5%, 11%, -120%, p<0.05 | tumour outcome (control, treated, inhibition, significance) (1000 PPM IN DIET FOR DURATION OF STUDY BEGINNING CONCURRENTLY WITH CARCINOGEN TREATMENT (STUDY DURATION: 42 WK), Strain/Sex: RAINBOW TROUT/ MALE, Target Tissue: Type of Lesion: STOMACH: TUMOR, Dose [Carcinogen]: 750 PPM IN DIET FOR 7 WK): 85%, 78%, 8%, p<0.05 | tumour outcome (control, treated, inhibition, significance) (1000 PPM IN DIET FOR DURATION OF STUDY BEGINNING CONCURRENTLY WITH CARCINOGEN TREATMENT (STUDY DURATION: 42 WK), Strain/Sex: RAINBOW TROUT/ MALE, Target Tissue: Type of Lesion: SWIM BLADDER: TUMOR, Dose [Carcinogen]: 750 PPM IN DIET FOR 7 WK): 1%, 1%, 0%, not significant | tumour outcome (control, treated, inhibition, significance) (1000 PPM IN DIET FROM 3 WK PRIOR TO CARCINOGEN TREATMENT TO 3 D POST CARCINOGEN TREATMENT (STUDY DURATION: 42 WK), Strain/Sex: RAINBOW TROUT/MALE, Target Tissue: Type of Lesion: LIVER: TUMOR, Dose [Carcinogen]: 4.16 PPM IN WATER FOR 1 HR): 7%, 16%, -129%, p<0.001 | tumour outcome (control, treated, inhibition, significance) (1000 PPM IN DIET FROM 3 WK PRIOR TO CARCINOGEN TREATMENT TO 3D POST CARCINOGEN TREATMENT (STUDY DURATION: 42 WK), Strain/Sex: RAINBOW TROUT/MALE, Target Tissue: Type of Lesion: STOMACH: TUMOR, Dose [Carcinogen]: 4.16 PPM IN WATER FOR 1 HR): 97%, 92%, 5%, not significant | tumour outcome (control, treated, inhibition, significance) (1000 PPM IN DIET FROM 3 WK PRIOR TO CARCINOGEN TREATMENT TO 3 D POST CARCINOGEN TREATMENT (STUDY DURATION: 42 WK), Strain/Sex: RAINBOW TROUT/MALE, Target Tissue: Type of Lesion: SWIM BLADDER: TUMOR, Dose [Carcinogen]: 4.16 PPM IN WATER FOR 1 HR): 14%, 50%, -257%, p<0.001 | tumour outcome (control, treated, inhibition, significance) (2000 PPM IN DIET FOR 17 WK BEGINNING POST CARCINOGEN TREATMENT (STUDY DURATION: 42 WK), Strain/Sex: RAINBOW TROUT/ MALE, Target Tissue: Type of Lesion: STOMACH: TUMOR, Dose [Carcinogen]: 5.5 PPM IN WATER FOR 1 HR): 88%, 19%, 78%, p<0.001 | tumour outcome (control, treated, inhibition, significance) (2000 PPM IN DIET FOR 17 WK BEGINNING POST CARCINOGEN TREATMENT (STUDY DURATION: 42 WK), Strain/Sex: RAINBOW TROUT/ MALE, Target Tissue: Type of Lesion: SWIM BLADDER: TUMOR, Dose [Carcinogen]: 5.5 PPM IN WATER FOR 1 HR): 15%, 6%, 60%, p<0.05 | tumour outcome (control, treated, inhibition, significance) (2000 PPM IN DIET FOR 17 WK BEGINNING POST CARCINOGEN TREATMENT (STUDY DURATION: 42 WK), Strain/Sex: RAINBOW TROUT/MALE, Target Tissue: Type of Lesion: LIVER: TUMOR, Dose [Carcinogen]: 5.5 PPM IN WATER FOR 1 HR): 5%, 10%, -100%, p<0.05 | tumour outcome (control, treated, inhibition, significance) (2000 PPM IN DIET FROM 1 WK PRIOR TO CARCINOGEN TREATMENT TO 3 D POST CARCINOGEN (STUDY DURATION: 42 WK), Strain/Sex: RAINBOW TROUT/ MALE, Target Tissue: Type of Lesion: SWIM-BLADDER: TUMOR, Dose [Carcinogen]: 5.5 PPM IN WATER FOR 1 HR): 15%, 7%, 53%, p<0.05 | tumour outcome (control, treated, inhibition, significance) (2000 PPM IN DIET FROM 1 WK PRIOR TO CARCINOGEN TREATMENT TO 3 D POST CARCINOGEN TREATMENT (STUDY DURATION: 42 WK), Strain/Sex: RAINBOW TROUT/ MALE, Target Tissue: Type of Lesion: LIVER: TUMOR, Dose [Carcinogen]: 5.5 PPM IN WATER FOR 1 HR): 5%, 3%, 40%, not significant
